From patent US3959356A, “Acetylene derivatives of amino acids” (Richardson-Merrell Inc., priority 1975, dated 1976)

Legend:
[1] = test system: γ-aminobutyric acid transaminase; conditions: literature compounds; cited from earlier work
[2] = test system: brain level of γ-aminobutyric acid; conditions: literature compound, cited from earlier work
reserpine ptosis = reserpine ptosis test of Rubin et al. (anti-depressant activity); type: in vivo; conditions: 50 mg/kg i.p. in mice one hour after 2 mg/kg i.v. reserpine; 3 hours after drug administration; control reserpinized animals 6.5
Method: The ability of the compounds of this invention at doses ranging from 50 to 200 mg/kg, to alleviate reserpine ptosis has been shown by the classical test of B. Rubin et al., J. Pharmacol. 120, 125 (1957), which is currently used to determine anti-depressant activity. For instance, in intraperitoneal injection 50 mg/kg of 4-amino-5-yne-hexanoic acid in mice, one hour after an intravenous injection of 2 mg/kg reserpine dissolved in 2% ascorbic acid/water results in a palpebral aperture of 5.5, 3 hours after drug administration as compared to 6.5 for control reserpinized animals.

[3] = test system: spontaneous motor activity; assay: spontaneous motor activity in rodents (sedative properties), procedure of Dews; type: in vivo; conditions: 100-200 mg/kg, mice or rats
Method: The sedative properties of the compounds of this invention were determined by measuring spontaneous motor activity in rodents by the procedure described by P. Dews, Brit. J. Pharmacol. 8, 46 (1953).

[4] = loss of body weight in rats on daily dosing; type: in vivo; conditions: rats weighing 190 g; oral 25 mg/kg for four days (not a sedative dose); saline group 250 g
Method: For instance, rats weighing 190 g, when given for four days, oral doses of 25 mg/kg 4-amino-5-yne-hexanoic acid (which is not a sedative dose) weigh only 170 gms as compared to 250 g for animals of the same group which were given saline for the same period.

audiogenic seizures = assay: protection against audiogenic seizures in DBA mice (method of Simler et al.); type: in vivo, mice of the DBA strain; conditions: 50-200 mg/kg
Source text: This ability is further shown by the protective effect of this treatment on audiogenic seizures in mice of the DBA strain measured by the general method described by Simler et al., Biochem. Pharmacol. 22, 1701 (1973), which is currently used to evidence antiepileptic activity.

Structure (SMILES) | type of inhibition of γ-aminobutyric acid transaminase [1] | effect on brain levels of γ-aminobutyric acid [2] | duration of the effect on brain γ-aminobutyric acid ([2]; reversible effect) | palpebral aperture (reserpine ptosis) | time after administration at which decreased motor activity is still observable ([3]; i.v., i.p. or oral) [h] | time at which decreased motor activity appears after administration ([3]; i.v., i.p. or oral) [h] | effect on spontaneous motor activity ([3]; intravenous, intraperitoneal or oral route) | body weight after treatment [4] [gms] | duration of protection against audiogenic seizures (audiogenic seizures) | protection against audiogenic seizures (audiogenic seizures; one hour after treatment)
CCCC(CCC)C(=O)O [n-dipropylacetate] | competitively inhibiting | elevate brain levels of γ-aminobutyric acid | about 2 hours | – | – | – | – | – | – | –
C#CC(N)CCC(=O)O (racemic) [4-amino-5-yne-hexanoic acid, 4-Amino-5-yne-hexanoic acid] | – | – | – | 5.5 | ≥ 48 | 1 | substantially decreased motor activity | 170 | over 16 hours | complete protection
NCC#CC(=O)O [4-aminotetrolic acid] | competitive reversible inhibitor | – | – | – | – | – | – | – | – | –
